According to patent US8841321B2, “Quinoline derivatives as antibacterial agents” (Janssen Pharmaceutica NV, priority 2005, dated 2014):
Converted amounts (≈) assume the structure as drawn.

How the values were obtained:
[1] = test system: SPN 6305 (Streptococcus pneumoniae (ATCC6305)); assay: Microtitre plate assay, IC90 determination; format: cell-based; details: Streptococcus pneumoniae (ATCC6305)
Procedure: (§1) The bacteria used in this study were grown overnight in flasks containing 100 ml Mueller-Hinton Broth (Becton Dickinson—cat. no. 275730) in sterile de-ionized water, with shaking, at 37° C. Stocks (0.5 ml/tube) were stored at −70° C. until use. Bacteria titrations were performed in microtiter plates and colony forming units (CFUs) were determined. In general, an inoculum level of approximately 100 CFUs was used for susceptibility testing.
(§2) Flat-bottom, sterile 96-well plastic microtiter plates were filled with 180 μl of sterile deionized water, supplemented with 0.25% BSA. Subsequently, stock solutions (7.8× final test concentration) of compounds were added in 45 μl volumes in column 2. Serial five-fold dilutions (45 μl in 180 μl) were made directly in the microtiter plates from column 2 to reach column 11. Untreated control samples with (column 1) and without (column 12) inoculum were included in each microtiter plate. Depending on the bacteria type, approximately 10 to 60 CFU per well of bacteria inoculum (100 TCID50), in a volume of 100 μl in 2.8× Mueller-Hinton broth medium, was added to the rows A to H, except column 12. The same volume of broth medium without inoculum was added to column 12 in row A to H. The cultures were incubated at 37° C. for 24 hours under a normal atmosphere (incubator with open air valve and continuous ventilation). At the end of incubation, one day after inoculation, the bacterial growth was quantitated fluorometrically. Therefore resazurin (0.6 mg/ml) was added in a volume of 20 μl to all wells 3 hours after inoculation, and the plates were re-incubated overnight. A change in colour from blue to pink indicated the growth of bacteria. The fluorescence was read in a computer-controlled fluorometer (Cytofluor Biosearch) at an excitation wavelength of 530 nm and an emission wavelength of 590 nm. The % growth inhibition achieved by the compounds was calculated according to standard methods. The IC90 (expressed in μg/ml) was defined as the 90% inhibitory concentration for bacterial growth.

[2] = test system: STA 29213 (Staphylococcus aureus (ATCC29213)); assay: Microtitre plate assay, IC90 determination; format: cell-based; details: Staphylococcus aureus (ATCC29213)
Procedure: as §1, §2

Row | SMILES | IC90 (μg/ml) SPN 6305 [1] [µg/mL] | IC90 (μg/ml) STA 29213 [2] [µg/mL]
1 | COc1nc2ccc(Br)cc2cc1C(c1ccccc1)C(O)(CCCCc1ccccc1)CCCCN1CCCCC1 (single isomer, unassigned) [Compound 148] | 2.23 (≈ 3.54 µM) | 1.99 (≈ 3.16 µM)
2 | COc1nc2ccc(Br)cc2cc1C(c1ccccc1)C(O)(CCCCc1ccccc1)CCCCN1CCCCC1 (single isomer, unassigned) [Compound 149] | 2.23 (≈ 3.54 µM) | 1.99 (≈ 3.16 µM)
3 | COc1ccc(C(c2cc3cc(Br)ccc3nc2OC)C(O)(CCCCN(C)C)c2ccc3ccccc3c2)cc1 (single isomer, unassigned) [Compound 157] | 2.74 (≈ 4.47 µM) | 2.44 (≈ 3.98 µM)
4 | COc1nc2ccc(Br)cc2cc1C(c1cccc(Cl)c1)C(O)(CCCCN(C)C)c1ccc2ccccc2c1 (single isomer, unassigned) [Compound 163] | 0.31 (≈ 0.502 µM) | 1 (≈ 1.62 µM)
5 | COc1nc2ccc(Br)cc2cc1C(c1ccc(Cl)cc1)C(O)(CCCCN(C)C)c1ccc2ccccc2c1 (single isomer, unassigned) [Compound 164] | 0.31 (≈ 0.502 µM) | 1.4 (≈ 2.27 µM)
6 | COc1ccc(C(c2cc3cc(Br)ccc3nc2OC)C(O)(CCCCN2CCCCC2)c2ccccc2)cc1 (single isomer, unassigned) [Compound 165] | 1.91 (≈ 3.16 µM) | 3.81 (≈ 6.31 µM)
7 | COc1ccc(C(c2cc3cc(Br)ccc3nc2OC)C(O)(CCCCN2CCCCC2)c2ccc(C)cc2)cc1 (single isomer, unassigned) [Compound 167] | 2.19 (≈ 3.55 µM) | 1.95 (≈ 3.16 µM)
8 | COc1ccc(C(c2cc3cc(Br)ccc3nc2OC)C(O)(CCCCN2CCCCC2)c2ccc(OC)cc2)cc1 (single isomer, unassigned) [Compound 169] | 2.52 (≈ 3.98 µM) | 4 (≈ 6.31 µM)
9 | COc1nc2ccc(Br)cc2cc1C(c1ccc(Cl)cc1)C(O)(CCCCN1CCCCC1)c1ccc(C)cc1 (single isomer, unassigned) [Compound 171] | 4.94 (≈ 7.94 µM) | 22.07 (≈ 35.5 µM)

More lines, now with the values ahead:

Row | IC90 (μg/ml) SPN 6305 [1] [µg/mL] | IC90 (μg/ml) STA 29213 [2] [µg/mL] | SMILES
10 | 9.34 (≈ 15.8 µM) | 9.34 (≈ 15.8 µM) | COc1nc2ccc(Br)cc2cc1C(c1ccccc1)C(O)(CCCCc1ccccc1)CCCCN(C)C (single isomer, unassigned) [Compound 147]
11 | 2.12 (≈ 4.52 µM) | 1.7 (≈ 3.63 µM) | CNCCCCCC(O)(c1ccccc1)C(c1ccccc1)c1cc2cc(C)ccc2nc1OC (single isomer, unassigned) [Compound 151]
12 | 7.65 (≈ 15.8 µM) | 3.8 (≈ 7.87 µM) | COc1nc2ccc(C)cc2cc1C(c1ccccc1)C(O)(CCCCCN(C)C)c1ccccc1 (single isomer, unassigned) [Compound 153]
13 | 1.7 (≈ 3.1 µM) | 1.7 (≈ 3.1 µM) | COc1nc2ccc(Br)cc2cc1C(c1ccccc1)C(O)(CCCCCN(C)C)c1ccccc1 (single isomer, unassigned) [Compound 155]
14 | 2.07 (≈ 3.55 µM) | 1.85 (≈ 3.17 µM) | COc1nc2ccccc2cc1C(c1cccc(Br)c1)C(O)(CCCCN(C)C)c1ccc2ccccc2c1 (single isomer, unassigned) [Compound 160]
15 | 2.07 (≈ 3.55 µM) | 1.85 (≈ 3.17 µM) | COc1nc2ccccc2cc1C(c1cccc(Br)c1)C(O)(CCCCN(C)C)c1ccc2ccccc2c1 (single isomer, unassigned) [Compound 161]
16 | 2.07 (≈ 3.55 µM) | 1.85 (≈ 3.17 µM) | COc1nc2ccccc2cc1C(c1cccc(Br)c1)C(O)(CCCCN(C)C)c1ccc2ccccc2c1 (single isomer, unassigned) [Compound 162]
17 | 1.91 (≈ 3.16 µM) | 1.91 (≈ 3.16 µM) | COc1ccc(C(c2cc3cc(Br)ccc3nc2OC)C(O)(CCCCN2CCCCC2)c2ccccc2)cc1 (single isomer, unassigned) [Compound 166]
